Results from patent US11179436B2, “Methods and compositions comprising a C-terminal Bax peptide” (University of Central Florida Research Foundation, Inc., priority 2011, dated 2021).

Assays:
[1] = Calcein release from calcein-loaded large unilamellar vesicles; assay type: biochemical; conditions: for maximal release of calcein upon treatment with detergent: Triton X-100 after peptide; for maximal release of calcein upon treatment with detergent / release of calcein from mitochondrial-like lipid vesicles: FIG. 1C; for release of calcein from mitochondrial-like lipid vesicles: free peptide
Procedure: Calcein release from artificial membranes was measured on a JASCO 810 spectropolarimeter (Jasco Inc.) with a Peltier water cooled thermostat and a photomultiplier tube mounted at 90 degrees for fluorescence measurements. Large unilamellar vesicles (LUVs) were prepared with the following modifications: Lipids (Avanti Polar Lipids) in chloroform were mixed in the following molar ratios: 52.5% 1-palmitoyl-2-oleyl-sn-glycero-3-phosphatidylcholine (POPC), 21% 1-palmitoyl-2-oleyl-sn-glycero-3-phosphatidylethanolamine (POPE), 13% bovine liver L-α phosphatidylinositol (PI), 10% cholesterol and 3.5% 1-palmitoyl-2-oleyl-sn-glycero-3-phosphatidylglycerol (POPG). These rations mimicked the outer mitochondrial membrane. After removing chloroform and desiccating, the dried lipid film was resuspended in 50 mM HEPES, pH 7, supplemented with 110 mM NaCl and 80 mM calcein and extruded with Avanti's mini extruder (Alabaster, Ala.). External calcein was removed by gel filtration through a 1.5×50 cm Econo-Column (Bio-Rad) freshly packed with Sephadex 50 (GE Healthcare). CT20 Bax peptides were added at concentrations equivalent to those used with cells in culture. Calcein fluorescence was excited at 495 nm and emission spectra recorded between 510 and 550 nm (excitation/ emission slits: 10/3 nm). Samples were maintained at 37° C. and a final measurement taken at 24 hours. Maximum calcein release was obtained by the addition of Triton ×100 (0.1% final concentration) to calcein loaded LUVs without nanoparticles that had had been incubated at 37° C. for 24 hours after the addition of 10 μL DMSO.
Using a commercially synthesized peptide composed of the last twenty amino acids ([…]) of the C-terminus of Bax (CT20), the ability of CT20p peptideto insert and permeabilize lipid membranes was examined. Liposomes contained phospholipids that composed the mitochondrial outer membrane and were loaded with calcein. […] In FIG. 1C, the red lines indicate maximal release of calcein with Triton X-100. The blue lines indicate treatment with DMSO and the green lines (except for control) indicate treatment with CT20 Bax peptides.
To determine whether the CT20p peptide could directly kill cancer cells, the CT20 wild type peptide was encapsulated in polymeric nanoparticles. As the CT20p peptide is amphipathic, it can be encapsulated within the hydrophobic pockets of aliphatic polymeric nanoparticles. […] To verify that the nanoparticles would not release the CT20 peptide at neutral pH, calcein loaded liposomes were prepared.
In FIG. 9, a calcein release assay was performed with calcein loaded lipid vesicles prepared with the composition of the mitochondrial membrane. Calcein release was measured as fluorescence. Controls were calcein release achieved with CT20p peptide alone and maximum calcein release obtained upon addition of Triton x100. A representative experiment of two independent experiments is shown. This confirmed that cargo is released from nanoparticles only by intracellular esterases or acidic pH (Santra et al., 2010).

MDA-MB-231 cells [2] = test: Membrane asymmetry with violet ratiometric probe; assay type: cell-based; conditions: FIG. 6B
Procedure: (§1) HCT-116, MCF-7, or MDA-MB-231 cells were collected at a final concentration of 1×10^6 cells/mL and assayed using the SYTOX® AADvanced™ dead cell stain solution (Invitrogen). Cells were analyzed using the BD FACSCanto flow cytometer. SYTOX® AADvanced™ was visualized at 488 nm and emissions collected at 695 nm. Analysis of data was done using FSC Express software (DeNovo). Membrane asymmetry was assessed using the Violet Ratiometric Membrane Asymmetry Probe/Dead Cell Apoptosis Kit (Invitrogen) according to the manufacturer's protocol.
(§2) To evaluate apoptosis, cells were pre-treated with 100 μM of the pan-caspase inhibitor Z-VAD-fmk (EMD Biosciences) or transiently transfected with Bcl-2, then treated with either CT20/nanoparticles or cisplatin (CDDP) alone or in combination as indicated in figure legends. Following treatment, cells were analyzed for cell death and membrane asymmetry.
Therefore, to determine whether the CT20p peptide induced apoptotic cell death, the amount of membrane asymmetry caused by flipping of phospholipids phospholipids in the plasma membrane using a violet ratiometric probe was determined. In FIG. 6B, dot blots show the comparison of loss of membrane integrity to changes in membrane symmetry in MDA-MB-231 cells treated with CT20p peptide and/or CDDP. […] This was minimally affected by caspase inhibition or Bcl-2 expression. […]

MDA-MB-231 cells [3] = test: Cell death by CT20 peptide/nanoparticles and/or CDDP, with Z-VAD-fmk or Bcl-2 overexpression; assay type: cell-based; conditions: FIG. 6A; for effect of caspase inhibition with Z-VAD-FMK on cell death: 100 μM Z-VAD-fmk pre-treatment; for cell death / loss of membrane integrity: CT20 peptide/nanoparticles 350 pM; for effect of Bcl-2 overexpression on cell death: transient Bcl-2 transfection
Procedure: MDA-MB-231 cells were transiently transfected with pcDNA-Bcl2 (or as control pEGFP (Clontech)) using the TransIT-LT1 transfection reagent (Minis). To assess transfection efficiency, cells were assayed microscopically for EGFP expression. To assess Bcl-2 expression, cells lysates were immunoblotted.
Visualization of the uptake and effects of the fluorescent dye (DiI)-loaded nanoparticles in HCT-116, MCF-7, and MDA-MD-231 cells was observed using a 10× air objective with a numerical aperture of 0.3, using ex/em of 514/587. All cells were loaded with MitoTracker. Visualization of the HCT-116 cell lines was observed using Plan-Apochromat 63× Oil objective. MCF-7 and MDA-MB-231 images were captured using Plan-Apochromat 40× Oil objective. All time-lapse images were generated in 2D by capturing 6 time points per hour for 24 hours of the same field.
as §1, §2
Whether the CT20 peptide was able to kill the breast cancer cells, MCF-7 and MDA-MB-231, was examined. […] For each sample, three different fields of view were acquired. Images are representative “snapshots” of three independent experiments Most MCF-7 cells died within 24 hours, while loss of membrane integrity was detected by 3 hours of treatment (FIG. 5B). […] Within three hours, increased membrane rupture was detected in MDA-MB-231 cells treated with COOH-nanoparticles loaded with CT20 peptide (FIG. 5D).
To investigate the mechanism by which the CT20p peptide was inducing cell death, MDA-MB-231 cells were treated with CT20 Bax peptide/nanoparticles (350 pM). A caspase inhibitor (e.g., ZVAD-Fmk and/or CDDP) was added or Bcl-2 was overexpressed. […] The expression of Bcl-2 by transfected cells was confirmed by immunoblotting lysates prepared from cells (FIG. 10).

[4] = Pore formation in zwitterionic and anionic membranes, kinetics of calcein release and structural studies; assay type: biochemical; conditions: calcein transport
From the text: An analysis of formation of relatively large membrane pores by Bax C-terminal 20-reside peptide (CT20p) and two mutants where the two native lysines are replaced either with glutamates (charge reversal mutation) or leucines (charge neutralization mutation) were examined. […] The kinetics of calcein release at various concentrations of the three peptides allowed identification of the second-order rate constants of pore formation within the membrane, the affinity constants of peptide units composing the pore, and the oligomeric pore structure. Nucleation of the pore is shown to be relatively slow and involve 2-3 peptide molecules, followed by a faster process of assembly of the pore that includes up to eight peptide molecules. Structural studies led to a model of an octameric transmembrane pore with an inner diameter of 20-22 A. Analysis of the kinetics of calcein release from lipid vesicles allows determination of rate constants of pore formation, peptide-peptide affinities within the membrane, the oligomeric state of transmembrane pores, and the role of the lysine residues. […]
Additionally, the pore structure was analyzed by polarized Fourier transform infrared, circular dichroism, and fluorescence experiments on the peptides reconstituted in phospholipid membranes. […]

[5] = test system: MDA-MB-231 cells implanted in the flanks of nude mice; test: Murine tumor experiment, intratumoral injection, tumor volume by ultrasound; assay type: in vivo; conditions: for tumor growth / change in tumor volume: intratumoral injections over a 4-5 day period, versus empty nanoparticles or PBS
Procedure: One to two million MBA-MD-231 cells were harvested from culture and injected subcutaneously into the right and left flanks of 16 female nude mice (nu/nu, Charles River). After 2-3 weeks, tumor volume and growth was assessed by ultrasound (VisualSonics Vevo 2100). Mice with tumors were injected intratumorally with PBS, unloaded polymeric nanoparticles, or CT20 Bax peptide-loaded polymeric nanoparticles at 4× the concentrations described above. Injections were performed twice over a 4-5 day period. Mice were observed 0-5 days post-treatments and tumor volume assessed by ultrasound.
MDA-MB-231 cells were implanted in the flanks of nude mice. Initial growth of tumors was detected after 2 weeks. At this time tumors were measured, and over a 4-5 day period, the mice were treated with intratumoral injections of PBS, unloaded or empty nanoparticles (NP), or CT20 peptide/nanoparticles.
FIG. 6D provides representative ultrasound image of changes in tumor volume induced by treatment on days 0, 2 and 4 with the unloaded or CT20 peptide loaded nanoparticles. These findings indicate reduced uptake or effectiveness in non-cancerous cells.

wild type E. coli [6] = test: E. coli colony formation after treatment; assay type: cell-based; conditions: FIG. 15
Procedure: This was determined by plating the E. coli after treatment then counting the resulting colonies after 24 hour incubation. […] The bacterial culture media was plated after 24 hours of treatment/exposure to Ct20p or the control conditions, a peptide (SCR) or no peptide and addition of DMSO, and the resulting colonies were counted. […] A conclusion was that the inhibition of growth seen in FIG. 14 was due to the killing or lysing of bacteria.

wild type E. coli [7] = test: E. coli growth in broth by optical density; assay type: cell-based; conditions: FIG. 14
Procedure: Attributes are shared among the peptides. […] The E. coli were grown in the presence of a peptide, concentrations of CT20p peptide or for control, SCR peptide, or no peptide for a control, in standard conditions for growing bacteria in broth media.

| Molecule | maximal release of calcein upon treatment with detergent [1] | release of calcein from mitochondrial-like lipid vesicles [1] | changes in membrane symmetry (MDA-MB-231 cells [2]) | effect of caspase inhibition with Z-VAD-FMK on cell death (MDA-MB-231 cells [3]) | cell death / loss of membrane integrity (MDA-MB-231 cells [3]) | effect of Bcl-2 overexpression on cell death (MDA-MB-231 cells [3]) | pore formation in lipid membranes [4] | pore formation in lipid membranes ([4]; listed as wild-type peptide) | tumor growth / change in tumor volume [5] | tumor growth / change in tumor volume ([5]; listed as CT20 peptide) | damage of normal tissue surrounding the tumors ([5]; ultrasound, FIG. 6D) | nature of effect from colony counts (wild type E. coli [6]; 24 hours of treatment) | minimum inhibitory concentration (MiC) (wild type E. coli [6]; plated after treatment, colonies counted after 24 hour incubation) [mg] | time at which the growth curve reached a plateau (wild type E. coli [7]) [h] | release of calcein from liposomes ([1]; 350 pM, pH 7, FIG. 9) |
| --- | --- | --- | --- | --- | --- | --- | --- | --- | --- | --- | --- | --- | --- | --- | --- |
| VTIFVAGVLTASLTIWLLMG [CT20-LL] | impaired the maximal release of calcein | did not cause calcein release | – | – | – | – | – | – | – | – | – | – | – | – | – |
| [NH2][Pt]([NH2])([Cl])[Cl] [CDDP, cisplatin, reference compound] | – | – | induced significant alterations in the membrane symmetry | inhibited by ZVAD-FMK | induced cell death | impaired death | – | – | – | – | – | – | – | – | – |
| VTIFVAGVLTASLTIWEEMG [CT20-EE] | did not occur | did not cause calcein release | – | – | – | – | – | – | – | – | – | – | – | – | – |
| VTIFVAGVLTASLTIWKKMG [CT20p peptide] | impaired the maximal release of calcein | caused the release of calcein | – | largely unaffected | caused significant loss of membrane integrity | did not impair the death activity | efficient at forming pores | most efficient pores | tumor regression | prevented tumor growth | little to no observable damage of normal tissue | bactericidal | 25 | 13 | did induce the release of calcein |
